Experimental data as given in US20090238852A1, “METHODS FOR CONTROLLING INTRACELLULAR CALCIUM LEVELS ASSOCIATED WITH AN ISCHEMIC EVENT” (University of Utah Research Foundation, priority 2008, published 2009).

What was measured:
[1] = tested on: platelets with HIT antibody
Experimental: The second technique employed was flow cytometric platelet analysis. In this functional test, platelets in whole blood are activated by heparin or heparin analog in the presence of heparin antibody in serum from a patient clinically diagnosed with HIT. Using flow cytometry, platelet activation was determined in two manners: by the formation of platelet microparticles and by the increase of platelet surface bound P-selectin.
Specifically, whole blood drawn by careful double-syringe technique was anticoagulated with hirudin (10 μg/ml final concentration). An aliquot of whole blood (50 μL) was immediately fixed in 1 ml 1% paraformaldehyde (gating control). […] Samples were analyzed on an EPICS XL flow cytometer (Beckman-Couter; Hialeah, Fla.) for forward angle (FALS) and side angle light scatter, and for FITC and PE (phycoerythrin) fluorescence. […]
Using the gating control sample, amorphous regions were drawn to include single platelets and platelet microparticles. Platelet microparticles were distinguished from platelets on the basis of their characteristic flow cytometric profile of cell size (FALS) and FITC fluorescence (CD61 platelet marker). […] Data was reported as a percentage of the total number of CD61-positive events analyzed.

[2] = tested on: activated clotting time (ACT); test: Porcine ischemia/reperfusion model: activated clotting time (ACT); format: in vivo, pig; details: for ACT group difference versus control: 90 and 180 min after
Excerpt: Arterial access was achieved via bilateral femoral artery cut-downs for the insertion of 8F sheaths. Central venous and carotid access was achieved via a neck incision to expose the external jugular vein and common carotid artery. Animals were then anticoagulated with 50 U/kg of unfractionated heparin to maintain an activated clotting time (ACT) between 250-350 seconds, prior to ischemia. A 7-8 Fr pigtail catheter was placed in the left ventricular cavity to measure pressure and for injection of […] microspheres. Angiography was performed to define coronary anatomy and measure the diameter of the left anterior descending coronary artery (LAD) at the point of intended balloon occlusion. A coronary sinus catheter was placed via the external jugular vein under fluoroscopic guidance for coronary venous sampling. Baseline cardiodynamic and hemodynamic data were measured using a solid state transducer-tipped catheter in the left ventricle (Millar Instruments, Houston, Tex.) to measure left ventricular pressure, and a fluid-filled transducer connected to the side port of the femoral artery sheath to measure peripheral arterial pressure. Approximately 3-4 million neutron-activated microspheres (BioPhysics Assay Laboratory, Inc, Worcester, Ma) (15 μm) were delivered through a pig-tail catheter into the left ventricle over a 30 second period, to quantify regional myocardial blood flow (RMBF). Simultaneously with injection, a reference sample was withdrawn at a rate of 7 cc/min from the femoral artery sheath, for 90 seconds during and after injection of microspheres. A contrast ventriculogram (60° right anterior oblique) was obtained to assess global and regional myocardial function at baseline. […] Balloon occlusion time was 75 minutes with coronary occlusion confirmed by contrast angiography, ST segment changes on electrocardiography, and quantitatively confirmed by microspheres delivered at the end of ischemia, as described above. […] At the end of 180 minutes of reperfusion, animals were euthanized with an IV injection of pentobarbital sodium (100 mg/kg) and the heart was excised to quantify the area at risk, infarct size, regional myocardial blood flow, and myeloperoxidase activity. Hemodynamic data (left ventricular and arterial blood pressure) and derived variables were recorded continuously using 10× and Datanalyst software (EMKA Technologies, Falls Church, Va.).
Blood anticoagulation was measured by following the ACT, determined using the Hemochron whole blood coagulating system (Hemochron, Edison, N.J.) and measured 10 minutes after delivery of 50 U/kg of unfractionated heparin after the insertion of arterial sheaths. […]

[3] = tested on: myeloperoxidase (MPO) activity; test: Porcine ischemia/reperfusion model: myeloperoxidase activity in myocardium; format: in vivo, pig; details: ODSH 45 mg/kg; FIG. 11
Excerpt: Arterial access was achieved via bilateral femoral artery cut-downs for the insertion of 8F sheaths. Central venous and carotid access was achieved via a neck incision to expose the external jugular vein and common carotid artery. Animals were then anticoagulated with 50 U/kg of unfractionated heparin to maintain an activated clotting time (ACT) between 250-350 seconds, prior to ischemia. A 7-8 Fr pigtail catheter was placed in the left ventricular cavity to measure pressure and for injection of 15 μneutron-activated microspheres. […] Baseline cardiodynamic and hemodynamic data were measured using a solid state transducer-tipped catheter in the left ventricle (Millar Instruments, Houston, Tex.) to measure left ventricular pressure, and a fluid-filled transducer connected to the side port of the femoral artery sheath to measure peripheral arterial pressure. Approximately 3-4 million neutron-activated microspheres (BioPhysics Assay Laboratory, Inc, Worcester, Ma) (15 μm) were delivered through a pig-tail catheter into the left ventricle over a 30 second period, to quantify regional myocardial blood flow (RMBF). […] Balloon occlusion time was 75 minutes with coronary occlusion confirmed by contrast angiography, ST segment changes on electrocardiography, and quantitatively confirmed by microspheres delivered at the end of ischemia, as described above. […]

## 2-O, 3-O desulfated heparin [ODSH]
[1]
  platelet microparticle formation versus saline control: no level of platelet microparticle formation above that of the saline control incubations
[2]; 15 mg/kg dose group
  elevation above control in ACT: approximately 200 seconds
[2]; ODS 5 mg/kg, end ischemia
  ACT group difference versus control: no significant differences in ACT
[2]; ODS 15 mg/kg, end ischemia
  ACT group difference versus control: no significant differences in ACT
[2]; ODS 45 mg/kg, end ischemia, 90 and 180 min after end of ischemia, on 50 U/kg UFH background
  ACT compared to the other groups: significantly higher
[3]
  MPO activity in ischemic-reperfused myocardium: significantly reduced
